From paper PMC2500149 (International Journal of Medical Sciences, 2008)

How the values were obtained:
[1] = Solubility of the peptides in water and TFE/water; format: physicochemical
[2] = Far UV circular dichroism, TFE polarity titration; format: physicochemical; conditions: aqueous solution, 10% TFE, 100 µg/ml
cells = conditions: free peptide without transporter; stated, no experiment described; cited from earlier work
[3] = statement of the introduction; cited from earlier work

ITFEDLLDYYGPKC [CAI-peptide]
water solubility (in words) [1]: water insoluble | aggregation (inferred from poor water solubility and β-structure in CD) [2]: oligomeric aggregates are formed | direct cell permeation / transfer across biomembranes (cells): cannot permeate cells directly

C=C(C)[C@@H]1CC[C@]2(C(=O)O)CC[C@]3(C)[C@H](CC[C@@H]4[C@@]5(C)CC[C@H](OC(=O)CC(C)(C)C(=O)O)C(C)(C)[C@@H]5CC[C@]43C)[C@@H]12 [PA-457]
water solubility [3]: limited water solubility

Cc1ccc(NC(=O)NCCSCc2ccc(CN(C)C)o2)cc1Cl [CAP-1]
water solubility [3]: limited water solubility

ITFEDLLDYYGP [CAI(Pep1)]
water solubility [3]: limited water solubility
